How the values were obtained:
HCT-116 [1] = assay: Growth inhibition of human HCT116 cells by MTT assay
[2] = Growth inhibition of human SGC7901 cells after 72 hrs by MTT assay; assay type: functional; details: SGC-7901, 72 h
HCT-116 [3] = assay: Growth inhibition of human HCT116 cells after 72 hrs by MTT assay; assay type: functional; details: HCT-116, 72 h
[4] = Growth inhibition of human 16HBE cells by MTT assay
[5] = Growth inhibition of human HLF cells by MTT assay
[6] = Growth inhibition of human HLF cells after 72 hrs by MTT assay; assay type: cell-based
[7] = Growth inhibition of human 16HBE cells after 72 hrs by MTT assay; assay type: cell-based, 16HBE14o-
[8] = Growth inhibition of human SGC7901 cells by MTT assay; details: SGC-7901

Compound	GI50 (HCT-116 [1])	GI50 (HCT-116 [3])	GI50 [8]	GI50 [2]	GI50 [4]	GI50 [5]	GI50 at 72 h [6]	GI50 at 72 h [7]
O=C1C=C(CCCCCCCCCCN2CCCN(C(=O)c3ccc(-c4ccccc4)cc3)CC2)C(=O)c2ccccc21	> 20 µM	> 20000 nM	> 20000 nM	> 20 µM	> 20 µM	> 20 µM	> 20 µM	> 20 µM
COC1=C(OC)C(=O)C(CCCCCCCCCCN2CCCN(CCCCCCCCCCC3=C(C)C(=O)C(OC)=C(OC)C3=O)CC2)=C(C)C1=O	8.43 µM	1980 nM	11700 nM	8.69 µM	14 µM	> 20 µM	> 20 µM	1.14 µM
COC1=C(C)C(=O)C(CCCCCCCCCCN2CCN(C(=O)c3ccc(-c4ccccc4)cc3)CC2)=C(C)C1=O	20 µM	2290 nM	> 20000 nM	5.27 µM	> 20 µM	> 20 µM	> 20 µM	3.19 µM
COC1=C(OC)C(=O)C(CCCCCCCCCCN2CCCN(C(=O)c3ccc(-c4ccccc4)cc3)CC2)=C(C)C1=O	9.73 µM	1360 nM	> 20000 nM	5 µM	8.01 µM	> 20 µM	> 20 µM	10.3 µM
COC1=C(C)C(=O)C(CCCCCCCCCCN(C)CCN(C)CCCCCCCCCCC2=C(C)C(=O)C(OC)=C(C)C2=O)=C(C)C1=O	> 20 µM	1480 nM	–	9.76 µM	> 20 µM	> 20 µM	> 20 µM	> 20 µM
COC1=C(C)C(=O)C(CCCCCCCCCCN2CCCN(C(=O)c3ccc(-c4ccccc4)cc3)CC2)=C(C)C1=O	9.68 µM	890 nM	19400 nM	1.56 µM	9.76 µM	> 20 µM	> 20 µM	3.15 µM
CC1=C(CCCCCCCCCCN2CCCN(C(=O)c3ccc(-c4ccccc4)cc3)CC2)C(=O)c2ccccc2C1=O	13.2 µM	970 nM	> 20000 nM	5.57 µM	12.4 µM	> 20 µM	> 20 µM	2.85 µM
COC1=C(OC)C(=O)C(CCCCCCCCCCN2CCN(CCCCCCCCCCC3=C(C)C(=O)C(OC)=C(OC)C3=O)CC2)=C(C)C1=O	11.7 µM	1950 nM	–	9.77 µM	> 20 µM	> 20 µM	> 20 µM	2.63 µM

Stronger by GI50 (HCT-116 [1]), values ahead:

GI50 (HCT-116 [1])	GI50 (HCT-116 [3])	GI50 [8]	Compound	GI50 [2]	GI50 [4]	GI50 [5]	GI50 at 72 h [6]	GI50 at 72 h [7]
0.13 µM	90 nM	150 nM	CC1=C(CCCCCCCCCCN2CCCN(CCCCCCCCCCC3=C(C)C(=O)c4ccccc4C3=O)CC2)C(=O)c2ccccc2C1=O	0.12 µM	1.14 µM	2.68 µM	4.95 µM	2.7 µM
0.1 µM	300 nM	140 nM	CC1=C(C)C(=O)C(CCCCCCCCCCN2CCCN(CCCCCCCCCCC3=C(C)C(=O)C(C)=C(C)C3=O)CC2)=C(C)C1=O	0.14 µM	0.91 µM	2.55 µM	0.36 µM	3.32 µM
0.12 µM	70 nM	–	CC1=C(C)C(=O)C(CCCCCCCCCCN2CCN(CCCCCCCCCCC3=C(C)C(=O)C(C)=C(C)C3=O)CC2)=C(C)C1=O	> 20 µM	1.52 µM	5.87 µM	> 20 µM	3.85 µM
0.26 µM	260 nM	390 nM	CC1=C(CCCCCCCCCCN2CCN(CCCCCCCCCCC3=C(C)C(=O)c4ccccc4C3=O)CC2)C(=O)c2ccccc2C1=O	> 20 µM	4.15 µM	15.7 µM	> 20 µM	3.52 µM
0.02 µM	40 nM	–	COC1=C(C)C(=O)C(CCCCCCCCCCN2CCCN(CCCCCCCCCCC3=C(C)C(=O)C(OC)=C(C)C3=O)CC2)=C(C)C1=O	0.04 µM	1.78 µM	6.86 µM	> 20 µM	> 20 µM
7.47 µM	1780 nM	19900 nM	CC1=C(C)C(=O)C(CCCCCCCCCCN2CCCN(C(=O)c3ccc(-c4ccccc4)cc3)CC2)=C(C)C1=O	1.39 µM	7.97 µM	> 20 µM	> 20 µM	4 µM
0.15 µM	180 nM	190 nM	COC1=C(C)C(=O)C(CCCCCCCCCCN2CCN(CCCCCCCCCCC3=C(C)C(=O)C(OC)=C(C)C3=O)CC2)=C(C)C1=O	0.14 µM	8.4 µM	> 20 µM	> 20 µM	> 20 µM
0.09 µM	30 nM	250 nM	CCCCCCCCCC[C@H](O)COCCOC[C@@H](O)CCCCCCCCCCCCC1=C[C@H](C)OC1=O	0.16 µM	4.8 µM	2.62 µM	9.71 µM	3.34 µM
0.15 µM	–	550 nM	COc1cccc2c1C(=O)c1c(O)c3c(c(O)c1C2=O)C[C@@](O)(C(=O)CO)C[C@@H]3O[C@H]1C[C@H](N)[C@H](O)[C@H](C)O1 [DOXORUBICIN]	–	0.18 µM	0.33 µM	–	–

From ChEMBL document CHEMBL3232754, “Identification of novel bivalent mimetics of annonaceous acetogenins via a scaffold-hopping strategy” (Bioorg Med Chem Lett, 2014)
